From patent US20020019365A1, “Pharmaceutical compositions of 2'-deoxy-2'-(fluoromethylene)cytidine” (priority 2000, published 2002)

Experiments:
[1] = pH-rate profile for the degradation of FMdC (pH-stability profile, FIG. 1); format: physicochemical
[2] = oral administration of FMdC in a conventional tablet form, systemic uptake / bioavailability; format: in vivo; details: mammalian patient
Procedure: Notwithstanding these teachings in the art, a problem has been encountered when the compound is administered in an oral form.

## Nc1ccn(C2OC(CO)[C@@H](O)/C2=C\F)c(=O)n1 (stereo partly shown) [FMdC, 2′-deoxy-2′-(fluoromethylene)cytidine]
[1]; Britton-Robinson buffer (pH 2 to pH 11) and 0.1N HCl (pH 1) at 60° C.
  pH at which FMdC is most stable: ~9 pH
[1]; pH of about 2 or less, 60° C.
  stability at a pH of about 2 or less: very unstable
[2]
  patient-to-patient variability of systemic uptake: high
  systemic uptake of the drug (oral bioavailability): less than desirable
